Results on four compounds are retold here after article PMC3460366, “Synthesis and Antibacterial Evaluation of a New Series of N-Alkyl-2-alkynyl/(E)-alkenyl-4-(1H)-quinolones” (Molecules, 2012).

For data set [1], the system named is M. smegmatis (ATCC 14468). Briefly: Microtiter broth dilution MIC against M. smegmatis (ATCC 14468). Conditions: Mycolicibacterium smegmatis, ATCC14468, 72 h, 37 °C, MTT. The data set is classed as cell-based. Background: Broth dilution looks for growth in wells or tubes with falling amounts of substance.
The next data set relates to M. smegmatis mc^2155. Briefly: Broth dilution MIC against M. smegmatis mc^2155. Format: cell-based. To be noted: Mycolicibacterium smegmatis, 72 h.
Data set [2] concerns human diploid embryonic lung cell line MRC-5. The experiment in a line: XTT cytotoxicity assay on MRC-5 cells. The data set is classed as cell-based. To be noted: for Metabolic active MRC-5 cells (%): XTT. How it is done:
In order to assess the cytotoxicity of these novel quinolone derivatives, the effect on the viability of a human lung fibroblast cell line MRC-5, was measured using XTT proliferation assay. […] In addition, the position of the triple bond in the side chain seems to have a significant influence on cytotoxcity which is increased in compounds with a triple bond more distant to the quinolone nucleus. This can be concluded by comparing results of 8l, 8n, 8p, and 8r having similar antimycobacterial activity on M. smegmatis but different cytotoxcity depending on triple bond position.
The cytotoxic activity of the synthetic compounds was determined by means of an XTT Cell Proliferation Kit II (Roche Diagnostics, Mannheim, Germany) using the human diploid embryonic lung cell line MRC-5 [11]. The quinolone derivatives were tested at concentrations of 100, 60, 30 and 10 µM in triplicate and the percentage of viable cells at each concentration was determined by comparing with the control.
(In general: Tetrazolium assays rely on reduction of a dye to a coloured formazan, in cell work by metabolically active cells.)

In data set [3] the target is T1, M. tuberculosis MurE ligase (Mycobacterium tuberculosis, UniProt P9WJL3).
T1 construct: made in house; host or cells: E. coli BL21(DE3)pLysS
T1 sequence (P9WJL3 whole entry): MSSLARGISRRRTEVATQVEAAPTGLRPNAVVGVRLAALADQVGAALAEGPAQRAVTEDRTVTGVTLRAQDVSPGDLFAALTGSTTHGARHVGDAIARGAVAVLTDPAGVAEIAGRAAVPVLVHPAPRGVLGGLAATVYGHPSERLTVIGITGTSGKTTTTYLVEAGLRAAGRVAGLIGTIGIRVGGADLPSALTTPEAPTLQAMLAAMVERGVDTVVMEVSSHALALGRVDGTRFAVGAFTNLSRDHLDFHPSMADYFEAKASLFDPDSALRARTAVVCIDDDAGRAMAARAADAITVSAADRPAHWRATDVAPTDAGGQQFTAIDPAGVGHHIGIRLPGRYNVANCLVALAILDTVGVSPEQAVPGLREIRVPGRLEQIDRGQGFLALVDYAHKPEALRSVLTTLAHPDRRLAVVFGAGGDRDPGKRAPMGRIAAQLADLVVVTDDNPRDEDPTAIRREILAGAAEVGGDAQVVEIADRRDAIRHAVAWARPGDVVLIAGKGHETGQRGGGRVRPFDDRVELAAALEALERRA
Briefly: M. tuberculosis MurE inhibition assay (phosphate colorimetric detection). Format: biochemical. To be noted: tested at 1000, 300, 100 and 30 µM; IC50 from plot of percent inhibition vs. concentration; read-out: IC50 Mtb MurE.

Data set [4] relates to M. bovis BCG (ATCC 35734). The experiment in a line: microbe, parasite or virus in culture. Format: cell-based. To be noted: Mycobacterium tuberculosis variant bovis BCG, 336 h, read-out: MIC M. bovis BCG.
The subject of a further data set is S. aureus EMRSA-15. The experiment in a line: Broth dilution MIC against EMRSA-15. Format: cell-based. Conditions: Staphylococcus aureus, EMRSA15, 18 h.
The next data set deals with M. phlei (ATCC 11758). The experiment in a line: Broth dilution MIC against M. phlei. To be noted: Mycolicibacterium phlei, ATCC11758, 72 h. Format: cell-based.
The next data set deals with M. fortuitum (ATCC 6841). The experiment in a line: Broth dilution MIC against M. fortuitum. Format: cell-based. Conditions: Mycolicibacterium fortuitum, ATCC6841, 72 h.
The subject of the next data set is EMRSA-15 and -16. The experiment in a line: Broth dilution MIC against epidemic MRSA strains. The data set is classed as cell-based, S. aureus. Conditions: Staphylococcus aureus, range over both strains and the compounds named.
A further data set relates to S. aureus EMRSA-16. Briefly: Broth dilution MIC against EMRSA-16. The data set is classed as cell-based. To be noted: Staphylococcus aureus, EMRSA16, 18 h.

SMILES strings stand for the structures. Values after ≈ are worked out from the molar mass of the structure shown. Values joined by “and” are separate entries in the source; they are usually repeats but may differ in a detail not shown here. Equal entries are not always repeated.

As to `CCCCCCCCC#CCCc1cc(=O)c2ccccc2n1CCCC` [Compound 8m, 1-(n-Butyl)-2-(3'-dodecynyl)-4(1H)-quinolone], the MIC in data set [1] was 2 µg/mL and 5.5 µM; against M. smegmatis mc^2155, 2 µg/mL and 5.5 µM; in data set [4], 25 µg/mL and 68.5 µM; with S. aureus EMRSA-15 it was 2 µg/mL and 5.5 µM; in the data set on M. phlei (ATCC 11758) it was 4 µg/mL and 10.9 µM; against M. fortuitum (ATCC 6841), 2 µg/mL and 5.5 µM. In addition, the MIC against EMRSA-15 and -16 is 2 µg/mL to 8 µg/mL and 5.5 µM to 22.8 µM; against S. aureus EMRSA-16 it was 4 µg/mL and 10.9 µM. Moreover, the “Metabolic active MRC-5 cells (%)” value stood at 94.9 ± 3.18% in [2] (10 µM), 89.7 ± 2.46% in data set [2] (30 µM), 67.5 ± 3.19% in [2] (60 µM) and 0.4 ± 0.02% in [2] (100 µM). In addition, the IC50 (as a rule, the concentration that inhibits the measured activity by half) in data set [3] is 235 µM.

For `CCCCCCCCC#CCCc1cc(=O)c2ccccc2n1CCC` [Compound 8l, 1-(n-Propyl)-2-(3'-dodecynyl)-4(1H)-quinolone], the MIC was 1 µg/mL and 2.8 µM in data set [1]; 25 µg/mL and 71.2 µM in data set [4]; 2 µg/mL and 5.7 µM against S. aureus EMRSA-15; 4 µg/mL and 11.4 µM against M. phlei (ATCC 11758); 2 µg/mL and 5.7 µM in the data set with M. fortuitum (ATCC 6841); 2 µg/mL to 8 µg/mL and 5.5 µM to 22.8 µM with EMRSA-15 and -16. The MIC against S. aureus EMRSA-16 is 8 µg/mL and 22.8 µM. Besides, the “Metabolic active MRC-5 cells (%)” value in data set [2] (10 µM) amounted to 100 ± 0.31%; in data set [2] (30 µM) it was 99.1 ± 2.32%; in data set [2] (60 µM), 69.1 ± 8.04%; in [2] (100 µM), 9.0 ± 6.85%. Besides, in [3], the IC50 amounted to 263 µM.

For `CCCCCCCCCCCCC#Cc1cc(=O)c2ccccc2n1C` [Compound 8r, 1-Methyl-2-(1′-tetradecynyl)-4(1H)-quinolone], the melting point – broadly, the temperature of the solid-liquid transition – is 41 to 43 °C. Moreover, in data set [1], the MIC is 0.5 µg/mL (≈ 1.42 µM). Also, the MIC in the data set on M. smegmatis mc^2155 was 1 µg/mL and 2.8 µM. The “Metabolic active MRC-5 cells (%)” value in data set [2] (10 µM) was 99.7 ± 2.03%. In addition, in data set [2] (30 µM), the “Metabolic active MRC-5 cells (%)” value is given as 98.1 ± 1.65%. Moreover, in data set [2] (60 µM), the “Metabolic active MRC-5 cells (%)” value stood at 97.1 ± 1.69%. The “Metabolic active MRC-5 cells (%)” value in data set [2] (100 µM) was found to be 95.7 ± 1.14%. In addition, the “toxicity to MRC-5 cell line (in words)” value in data set [2] (at / up to 100 µM) is reported as “devoid of toxicity”. In data set [3], the IC50 amounted to 631 µM. Besides, in data set [4], the MIC is 25 µg/mL and 71.2 µM. The MIC in the data set on S. aureus EMRSA-15 was 16 µg/mL and 45.6 µM. The MIC with M. phlei (ATCC 11758) is 2 µg/mL and 5.7 µM. Also, the MIC with M. fortuitum (ATCC 6841) is 0.5 µg/mL and 1.5 µM. In addition, in the data set with S. aureus EMRSA-16, the MIC was 128 µg/mL and 365 µM.

Turning to `CCCCCCCCCCC#CCCc1cc(=O)c2ccccc2n1C` [Compound 8o, 1-Methyl-2-(3'-tetradecynyl)-4(1H)-quinolone], the melting point lay in the range of 43 to 45 °C. In data set [1], the MIC was 2 µg/mL and 5.7 µM. For the same compound, in the data set with M. smegmatis mc^2155, the MIC is 1 µg/mL and 2.8 µM. Moreover, in data set [2] (10 µM), the “Metabolic active MRC-5 cells (%)” value was 100 ± 0.73%. Also, in data set [2] (30 µM), the “Metabolic active MRC-5 cells (%)” value came to 97.9 ± 0.88%. Besides, the “Metabolic active MRC-5 cells (%)” value in data set [2] (60 µM) was 95.8 ± 2.54%. The “Metabolic active MRC-5 cells (%)” value in data set [2] (100 µM) is given as 90.7 ± 3.48%. For the same compound, the 50% inhibitory concentration (IC50) in data set [3] is 774 µM. For the same compound, the MIC in data set [4] is 25 µg/mL and 71.2 µM. Besides, the MIC in the data set on S. aureus EMRSA-15 is 8 µg/mL and 22.8 µM. Also, the MIC against M. phlei (ATCC 11758) is 2 µg/mL and 5.7 µM. Further, the MIC with M. fortuitum (ATCC 6841) is 2 µg/mL and 5.7 µM. In addition, the MIC against S. aureus EMRSA-16 was 8 µg/mL and 22.8 µM.
